Source: patent US8735417B2, “Aminopyrimidines as Syk inhibitors” (Merck Sharp & Dohme Corp., priority 2009, dated 2014)

Molecular target: T1, recombinant human GST-SYK (Homo sapiens, UniProt P43405)
T1 construct: purchased Carna Biosciences 08-176
Experiment: Homogeneous Time-Resolved Fluorescence (HTRF) assay for the recombinant human SYK enzyme
Type: biochemical
Settings: recombinant human GST-SYK 5 pM, ATP 25 μM, 10-dose titration; read-out: rhSYK Activity (IC50)
Procedure: Homogeneous Time-Resolved Fluorescence (HTRF) Assay for the Recombinant Human SYK Enzyme:
A recombinant GST-hSYK fusion protein was used to measure potency of compounds to inhibit human SYK activity. The recombinant human GST-SYK (Carna Biosciences #08-176) (5 pM final concentration) was incubated with various concentrations of the inhibitor diluted in DMSO (0.1% final concentration) for 10 minutes at room temperature in 15 mM Tris-HCl (pH 7.5), 0.01% tween 20, 2 mM DTT in 384 well plate format. To initiate the reaction the biotinylated substrate peptide (250 nM final concentration) that contains the phosphorylation site for SYK was added with magnesium (5 mM final concentration) and ATP (25 μM final concentration). Final volume of the reaction was 10 μL. Phosphorylation of the peptide was allowed to proceed for 45′ at room temperature. To quench the reaction and detect the phosphorylated product, 2 nM of a Europium-atiti-phosphotyrosine antibody (Perkin Elmer #AD0161) and 70 nM SA-APC (Perkin-Elmer #CR130-100) were added together in 15 mM Tris pH 7.5, 40 mM EDTA, 0.01% tween 20. Final volume of the quenching solution was 10 μL. The resulting HTRF signal was measured after 30 minutes on a EnVision (Perkin-Elmer) reader using a time-resolved fluorescence protocol.

| Structure (SMILES) | IC50 |
| --- | --- |
| OC1(CCNc2ncc(-c3cccc(Nc4nccc(C(F)(F)F)n4)c3)s2)CCCC1 [Example 17] | ≤ 100 nM |
| OCC(CO)Nc1ncc(-c2cccc(Nc3nccc(C(F)(F)F)n3)c2)s1 [Example 11] | ≤ 100 nM |
| C=CCN(CC=C)c1ncc(-c2cccc(Nc3nccc(C(F)(F)F)n3)c2)s1 [Example 25] | ≤ 100 nM |
| CN1CCC(CNc2ncc(-c3cccc(Nc4nccc(C(F)(F)F)n4)c3)s2)C1 (stereo not shown) [Example 53] | ≤ 100 nM |
| Cc1cc(CNc2ncc(-c3cccc(Nc4nccc(C(F)(F)F)n4)c3)s2)nn1C [Example 67] | ≤ 100 nM |
| CN(Cc1ccccc1)c1ncc(-c2cccc(Nc3nccc(C(F)(F)F)n3)c2)s1 [Example 48] | 100 to 1000 nM |
| CC(C)C(CO)Nc1ncc(-c2cccc(Nc3nccc(C(F)(F)F)n3)c2)s1 (stereo not shown) [Example 20] | ≤ 100 nM |
| OCCN(c1ncc(-c2cccc(Nc3nccc(C(F)(F)F)n3)c2)s1)C1CCCC1 [Example 49] | 100 to 1000 nM |
| Cc1nn(C)c(C)c1CNc1ncc(-c2cccc(Nc3nccc(C(F)(F)F)n3)c2)s1 [Example 79] | ≤ 100 nM |
| Cn1cc(CNc2ncc(-c3cccc(Nc4nccc(C(F)(F)F)n4)c3)s2)cn1 [Example 62] | ≤ 100 nM |
| FC(F)(F)c1ccnc(Nc2cccc(-c3cnc(NCC4CCOC4)s3)c2)n1 (stereo not shown) [Example 45] | ≤ 100 nM |
| Cc1ccsc1CNc1ncc(-c2cccc(Nc3nccc(C(F)(F)F)n3)c2)s1 [Example 75] | 1000 to 10000 nM |
| Cc1cc(Nc2nccc(C(F)(F)F)n2)cc(-c2cnc(NCCc3c[nH]cn3)s2)c1 [Example 93] | ≤ 100 nM |
| FC(F)(F)c1ccnc(Nc2cccc(-c3cnc(NCCc4c[nH]cn4)s3)c2)n1 [Example 35] | ≤ 100 nM |
| CC(CO)Nc1ncc(-c2cccc(Nc3nccc(C(F)(F)F)n3)c2)s1 (stereo not shown) [Example 32] | ≤ 100 nM |
| Cc1cc(Nc2nccc(C(F)(F)F)n2)cc(-c2cnc(N(C)CCO)s2)c1 [Example 27] | ≤ 100 nM |
| Cc1cc(Nc2nccc(C(F)(F)F)n2)cc(-c2cnc(NCc3cn4ccccc4n3)s2)c1 [Example 89] | 100 to 1000 nM |
| FC(F)(F)c1ccnc(Nc2cccc(-c3cnc(NC4CCCC4)s3)c2)n1 [Example 43] | 100 to 1000 nM |
| Cc1cc(Nc2nccc(C(F)(F)F)n2)cc(-c2cnc(NCCc3cnccn3)s2)c1 [Example 96] | ≤ 100 nM |
| OCCN(Cc1ccccn1)c1ncc(-c2cccc(Nc3nccc(C(F)(F)F)n3)c2)s1 [Example 8] | ≤ 100 nM |
| FC(F)(F)c1ccnc(Nc2cccc(-c3cnc(NCc4c[nH]nn4)s3)c2)n1 [Example 41] | ≤ 100 nM |
| CSc1ccnc(Nc2cc(C)cc(-c3cnc(N4CCCNC(=O)C4)s3)c2)n1 [4-[5-(3-methyl-5-{[4-(methylsulfanyl)pyrimidin-2-yl]amino}phenyl)-1,3-thiazol-2-yl]-1,4-diazepan-2-one] | ≤ 100 nM |
| O=C1CCCN1CCNc1ncc(-c2cccc(Nc3nccc(C(F)(F)F)n3)c2)s1 [Example 51] | ≤ 100 nM |
| OC1COCC1Nc1ncc(-c2cccc(Nc3nccc(C(F)(F)F)n3)c2)s1 (stereo not shown) [Example 12] | ≤ 100 nM |
| OCCCCCCN(Cc1ccccc1)c1ncc(-c2cccc(Nc3nccc(C(F)(F)F)n3)c2)s1 [Example 26] | 100 to 1000 nM |
| OC1CCCC(Nc2ncc(-c3cccc(Nc4nccc(C(F)(F)F)n4)c3)s2)C1 (stereo not shown) [Example 82] | ≤ 100 nM |
| Cc1cc(Nc2nccc(C(F)(F)F)n2)cc(-c2cnc(NCCO)s2)c1 [Example 28] | ≤ 100 nM |
| CC(C)(O)CNc1ncc(-c2cccc(Nc3nccc(C(F)(F)F)n3)c2)s1 [Example 29] | ≤ 100 nM |

Other lines, results leading:

| IC50 | Structure (SMILES) |
| --- | --- |
| ≤ 100 nM | CCc1ccnc(Nc2cc(C)cc(-c3cnc(N4CCCNC(=O)C4)s3)c2)n1 [Example 207] |
| ≤ 100 nM | Cc1cc(Nc2ncc(Cl)cn2)cc(-c2cnc(N3CCCNC(=O)C3)s2)c1 [Example 200, 4-(5-{3-[(5-chloropyrimidin-2-yl)amino]-5-methylphenyl}-1,3-thiazol-2-yl)-1,4-diazepan-2-one] |
| ≤ 100 nM | Cc1cc(Nc2nccc(C(F)(F)F)n2)cc(-c2cnc(NCCC3(O)CCN(C)CC3)s2)c1 [Example 116] |
| ≤ 100 nM | CCNC(=O)Nc1cc(Nc2nccc(C(F)(F)F)n2)cc(-c2cnc(N3CCCNC(=O)C3)s2)c1 [Example 185, 1-ethyl-3-(3-[2-(3-oxo-1,4-diazepan-1-yl)-1,3-thiazol-5-yl]-5-{[4-(trifluoromethyl)pyrimidin-2-yl]amino}phenyl)urea] |
| 100 to 1000 nM | Cc1cc(Nc2nccc(C(F)(F)F)n2)cc(-c2csc(N3CCC(O)CC3)n2)c1 [Example 225, 1-[4-(3-methyl-5-{[4-(trifluoromethyl)pyrimidin-2-yl]amino}phenyl)-1,3-thiazol-2-yl]piperidin-4-ol] |
| ≤ 100 nM | Cc1cc(Nc2nccc(C#N)n2)cc(-c2cnc(N3CCCNC(=O)C3)s2)c1 [Example 204] |
| 100 to 1000 nM | Cc1cc(Nc2ncc(F)c(OC3CCOC3)n2)cc(-c2cnc(N3CCCNC(=O)C3)s2)c1 (stereo not shown) [Example 216, 4-[5-(3-{[5-fluoro-4-(tetrahydrofuran-3-yloxy)pyrimidin-2-yl]amino}-5-methylphenyl)-1,3-thiazol-2-yl]-1,4-diazepan-2-one] |
| 1000 to 10000 nM | Cc1cc(Nc2nccc(C(F)(F)F)n2)cc(-c2cnc(N3CCC(OCC(=O)NC(C)(C)C)CC3)s2)c1 [Example 145] |
| 100 to 1000 nM | FC(F)(F)c1ccnc(Nc2cccc(-c3cnc(N4CCCC4c4ccccc4)s3)c2)n1 (stereo not shown) [Example 161] |
| 100 to 1000 nM | Cc1cc(Nc2nccc(C(F)(F)F)n2)cc(-c2cnc(N(C)Cc3nc4ccccc4o3)s2)c1 [Example 102] |
| ≤ 100 nM | Cc1cc(Nc2nccc(C(F)(F)F)n2)cc(-c2cnc(NCCc3c(C)n[nH]c3C)s2)c1 [Example 111] |
| 100 to 1000 nM | O=C(COC1CCN(c2ncc(-c3cccc(Nc4nccc(C(F)(F)F)n4)c3)s2)CC1)NC1CC1 [Example 136] |
| ≤ 100 nM | CC(=O)Nc1cc(Nc2nccc(C(F)(F)F)n2)cc(-c2cnc(NCCO)s2)c1 [Example 187] |
| ≤ 100 nM | CCNC(=O)Nc1cc(Nc2nccc(C(F)(F)F)n2)cc(-c2cnc(NCCO)s2)c1 [Example 188] |
| ≤ 100 nM | Cc1cc(Nc2nccc(C(F)(F)F)n2)cc(-c2cnc(N3CCN(C(=O)c4ccc5cc[nH]c5c4)CC3)s2)c1 [Example 128] |
| ≤ 100 nM | OC1CCN(c2ncc(-c3cccc(Nc4nccc(C(F)(F)F)n4)c3)s2)C1 (stereo not shown) [Example 158] |
| ≤ 100 nM | Cc1cc(Nc2nccc(C(F)(F)F)n2)cc(-c2cnc(N3CCOCC3)s2)c1 [Example 122] |

| IC50 | Structure (SMILES) |
| --- | --- |
| 100 to 1000 nM | FC(F)(F)c1ccnc(Nc2cccc(-c3cnc(N4CCOC(C(F)(F)F)C4)s3)c2)n1 (stereo not shown) [Example 121] |
| ≤ 100 nM | Cc1cc(Nc2ncc(Cl)c(C)n2)cc(-c2cnc(N3CCCNC(=O)C3)s2)c1 [Example 211, 4-(5-{3-[(5-Chloro-4-methylpyrimidin-2-yl)amino]-5-methylphenyl}-1,3-thiazol-2-yl)-1,4-diazepan-2-one] |
| ≤ 100 nM | O=C1OCCN1c1ncc(-c2cccc(Nc3nccc(C(F)(F)F)n3)c2)s1 [Example 175, 3-[5-(3-{[4-(trifluoromethyl)pyrimidin-2-yl]amino}phenyl)-1,3-thiazol-2-yl]-1,3-oxazolidin-2-one] |
| ≤ 100 nM | Cc1cc(Nc2nccc(OC3CCNCC3)n2)cc(-c2cnc(N3CCCNC(=O)C3)s2)c1 [Example 215, 4-[5-(3-methyl-5-{[4-(piperidin-4-yloxy)pyrimidin-2-yl]amino}phenyl)-1,3-thiazol-2-yl]-1,4-diazepan-2-one] |
| ≤ 100 nM | COc1ccnc(Nc2cc(C)cc(-c3cnc(N4CCCNC(=O)C4)s3)c2)n1 [Example 205] |
| ≤ 100 nM | Cc1cc(Nc2nccc(C(F)(F)F)n2)cc(-c2cnc(NCCc3ccco3)s2)c1 [Example 107] |
| ≤ 100 nM | OCCC1CCCN(c2ncc(-c3cccc(Nc4nccc(C(F)(F)F)n4)c3)s2)C1 (stereo not shown) [Example 142] |
| ≤ 100 nM | NC1CCN(c2ncc(-c3cccc(Nc4nccc(C(F)(F)F)n4)c3)s2)C1 (stereo not shown) [Example 162] |
| 1000 to 10000 nM | O=C1CN(c2ncc(-c3cccc(Nc4nccc(C(F)(F)F)n4)c3)s2)CCN1 [Example 123] |
| ≤ 100 nM | Cc1cc(Nc2nccc(SCCO)n2)cc(-c2cnc(N3CCCNC(=O)C3)s2)c1 [Example 222, 4-{5-[3-({4-[(2-hydroxyethyl)sulfanyl]pyrimidin-2-yl}amino)-5-methylphenyl]-1,3-thiazol-2-yl}-1,4-diazepan-2-one] |
| ≤ 100 nM | COc1ccnc(Nc2cc(C)cc(-c3sc(N4CCCNC(=O)C4)nc3Cl)c2)n1 [Example 227, 4-(4-chloro-5-{3-[(4-methoxypyrimidin-2-yl)amino]-5-methylphenyl}-1,3-thiazol-2-yl)-1,4-diazepan-2-one] |
| ≤ 100 nM | O[C@@H]1CN(c2ncc(-c3cccc(Nc4nccc(C(F)(F)F)n4)c3)s2)C[C@@H]1O [Example 157] |
| ≤ 100 nM | Cc1cc(Nc2nccc(C(C)C)n2)cc(-c2cnc(N3CCCNC(=O)C3)s2)c1 [Example 206] |
| 100 to 1000 nM | C=CCOC(=O)N1CCN(c2ncc(-c3cccc(Nc4nccc(C(F)(F)F)n4)c3)s2)C(CO)C1 (stereo not shown) [Example 126] |
| ≤ 100 nM | Cc1cc(Nc2nccc(SC(C)C)n2)cc(-c2cnc(N3CCCNC(=O)C3)s2)c1 [Example 219] |
| ≤ 100 nM | Cc1cc(Nc2nccc(C(F)(F)F)n2)cc(-c2cnc(NCCc3c[nH]c4ccccc34)s2)c1 [Example 112] |
